Measurements from US9606132B2, “Methods of monitoring adherence to lurasidone therapy” (Ameritox, Ltd., priority 2013, dated 2017).
Values joined by “and” are separate entries in the source; they are usually repeats but may differ in a detail not shown here. Equal values may be shown once.

Key:
[1] = Quantitative urine testing of patients prescribed Latuda for compliance over 5 days (Examples 2-7)
Method: The urine of 20 patients who were prescribed 20 mg of Latuda® (lurasidone) was tested for compliance over 5 days (Table 3).
Samples that were deemed invalid based on pH and/or specific gravity (n=7) were not included in calculations. Any drug/metabolite concentration that was less than the LOD/LOQ (5 ng/mL) as noted in Table 3 was also excluded from the calculations.
The urine of 12 patients who were prescribed 40 mg of Latuda® (lurasidone) was tested for compliance over 5 days (Table 5).
Samples that were deemed invalid based on pH and/or specific gravity (n=3) were not included in calculations. Any drug/metabolite concentration that was less than the LOD/LOQ (5 ng/mL) as noted in Table 5 was also excluded from the calculations.
The urine of 2 patients who was prescribed 60 mg of Latuda® (lurasidone) was tested for compliance over 5 days (Table 7).
The urine of 15 patients who were prescribed 80 mg of Latuda® (lurasidone) was tested for compliance over 5 days (Table 9).
Any drug/metabolite concentration that was less than the LOD/LOQ (5 ng/mL) as noted in Table 5 was also excluded from the calculations.
The urine of 1 patient who was prescribed 100 mg of Latuda® (lurasidone) was tested for compliance over 5 days (Table 11).
The urine of 6 patients who were prescribed 120 mg of Latuda® (lurasidone) was tested for compliance over 5 days (Table 13).
Samples that were deemed invalid based on pH and/or specific gravity (n=2) were not included in calculations.

[2] = cited from earlier work
[3] = cited from earlier work; remark: listed apart in the source
[4] = cited from earlier work; remark: listed apart in the source
CYP3A4 = molecular target: T1, CYP3A4 (Homo sapiens, UniProt P08684); settings: liver; cited from earlier work
T1 construct: host or cells: liver (in vivo metabolism, general statement)
T1 sequence (P08684 whole entry): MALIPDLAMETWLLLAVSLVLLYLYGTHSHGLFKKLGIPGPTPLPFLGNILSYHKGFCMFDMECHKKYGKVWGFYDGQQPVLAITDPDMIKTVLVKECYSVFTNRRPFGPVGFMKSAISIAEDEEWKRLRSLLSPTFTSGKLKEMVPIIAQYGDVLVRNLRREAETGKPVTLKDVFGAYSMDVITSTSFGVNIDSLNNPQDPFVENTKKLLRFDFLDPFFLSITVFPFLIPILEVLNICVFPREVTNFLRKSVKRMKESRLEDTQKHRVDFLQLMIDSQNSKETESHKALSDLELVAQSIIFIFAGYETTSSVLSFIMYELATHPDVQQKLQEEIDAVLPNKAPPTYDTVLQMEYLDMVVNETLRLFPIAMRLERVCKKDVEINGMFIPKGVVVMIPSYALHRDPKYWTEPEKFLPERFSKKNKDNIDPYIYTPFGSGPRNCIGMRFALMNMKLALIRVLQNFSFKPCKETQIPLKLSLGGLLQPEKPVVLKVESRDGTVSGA

[5] = Qualitative identification of lurasidone and metabolites in urine by Q-ToF MS/MS (Example 1); settings: chronic lurasidone doses; for Lurasidone Metabolite Distribution in Human Urine (qualitative identification): individual subjects
Method: Urine samples of normally metabolizing human subjects who were known to be taking chronic doses of lurasidone were tested for the presence of lurasidone and eleven metabolites (excluding isomeric metabolites). Each patient sample was analyzed twice to ensure accuracy. Due to the high probability for false identification of isobars, MS/MS data was collected and selectively looked at to add confidence to the identification.

[6] = 20 mg/day, n 53 valid samples, values below LOD/LOQ excluded
[7] = 40 mg/day, n 33 valid samples, values below LOD/LOQ excluded
[8] = 80 mg/day, n 45, values below LOD/LOQ excluded

Lurasidone
urine concentration ([1]; 20 mg/day Latuda, Day 1, individual subjects, ** = below LOD/LOQ 5 ng/mL (negative)): 9.7 ng/mL and 12.7 ng/mL and 9.0 ng/mL and 33.1 ng/mL and 24.6 ng/mL and 6.9 ng/mL and 6.0 ng/mL and 4.4* ** ng/mL and 9.1 ng/mL (2×) and 10.1 ng/mL and 5.7 ng/mL and 7.8 ng/mL and 12.9 ng/mL and 25.8 ng/mL and 13.8 ng/mL and 3.2** ng/mL and 83.1 ng/mL and 33.4 ng/mL and 12.0 ng/mL
urine concentration ([1]; 20 mg/day Latuda, Day 4, individual subjects, ** = below LOD/LOQ 5 ng/mL (negative)): 149.0 ng/mL and 14.3 ng/mL and 18.9 ng/mL and 4.8** ng/mL and 14.0 ng/mL and 5.7 ng/mL and 4.7* ** ng/mL and 7.0 ng/mL (2×) and 2.9* ** ng/mL and 31.3 ng/mL and 13.0 ng/mL and 7.3 ng/mL and 24.3 ng/mL and 4.3** ng/mL and 12.5 ng/mL and 17.5 ng/mL and 5.8 ng/mL and 29.1 ng/mL and 8.0 ng/mL
urine concentration ([1]; 20 mg/day Latuda, Day 5, individual subjects, ** = below LOD/LOQ 5 ng/mL (negative)): 9.6 ng/mL and 8.8 ng/mL and 13.2 ng/mL and 24.4 ng/mL and 26.2 ng/mL and 20.3 ng/mL and 6.5 ng/mL and 6.6 ng/mL and 6.0 ng/mL and 18.6 ng/mL and 12.1 ng/mL and 13.6 ng/mL and 5.4 ng/mL and 10.2 ng/mL and 11.0 ng/mL and 12.4 ng/mL and 5.2 ng/mL and 4.7** ng/mL and 23.2 ng/mL and 10.4 ng/mL
urine concentration, Maximum Value ([1]; 20 mg/day, n 53 valid samples): 149.00 ng/mL
urine concentration, Median Value ([1]; 20 mg/day, n 53 valid samples): 12.45 ng/mL
urine concentration, Average [1, 6]: 18.38 ng/mL
urine concentration, Minimum Value [1, 6]: 5.70 ng/mL
urine concentration ([1]; 40 mg/day Latuda, Day 1, individual subjects, ** = below LOD/LOQ 5 ng/mL (negative)): 30.5 ng/mL and 31.9 ng/mL and 63.9 ng/mL and 25.8 ng/mL and 4.4** ng/mL and 30.6 ng/mL and 9.8 ng/mL and 112.1 ng/mL and 14.0 ng/mL and 11.8 ng/mL and 129.1 ng/mL and 77.1 ng/mL
urine concentration ([1]; 40 mg/day Latuda, Day 4, individual subjects, ** = below LOD/LOQ 5 ng/mL (negative)): 21.7 ng/mL and 25.6 ng/mL and 70.7 ng/mL and 69.3 ng/mL and 26.4 ng/mL and 1.0** ng/mL and 41.3 ng/mL and 14.5 ng/mL and 54.0 ng/mL and 32.8 ng/mL and 12.8 ng/mL and 38.0 ng/mL
urine concentration ([1]; 40 mg/day Latuda, Day 5, individual subjects, ** = below LOD/LOQ 5 ng/mL (negative)): 37.9 ng/mL (2×) and 60.0 ng/mL and 33.4 ng/mL and 40.1 ng/mL and 1.3** ng/mL and 35.8 ng/mL and 7.2 ng/mL and 192.1 ng/mL and 11.3 ng/mL and 7.8 ng/mL and 56.4 ng/mL
urine concentration, Maximum Value ([1]; 40 mg/day, n 33 valid samples): 192.10 ng/mL
urine concentration, Median Value ([1]; 40 mg/day, n 33 valid samples): 33.10 ng/mL
urine concentration, Average [1, 7]: 44.23 ng/mL
urine concentration, Minimum Value [1, 7]: 7.20 ng/mL
urine concentration ([1]; 60 mg/day Latuda, Day 1, individual subjects): 16.3 ng/mL
urine concentration ([1]; 60 mg/day Latuda, Day 4, individual subjects): 25.3 ng/mL and 36.8 ng/mL
urine concentration ([1]; 60 mg/day Latuda, Day 5, individual subjects): 50.5 ng/mL
urine concentration, Average ([1]; 60 mg/day, n 6): 30.30 ng/mL
urine concentration, Maximum Value ([1]; 60 mg/day, n 6): 50.50 ng/mL
urine concentration, Median Value ([1]; 60 mg/day, n 6): 31.05 ng/mL
urine concentration, Minimum Value ([1]; 60 mg/day, n 6): 15.60 ng/mL
urine concentration, Maximum Value ([1]; 80 mg/day, n 45): 556.60 ng/mL
urine concentration, Median Value ([1]; 80 mg/day, n 45): 70.00 ng/mL
urine concentration, Average [1, 8]: 120.26 ng/mL
urine concentration, Minimum Value [1, 8]: 10.10 ng/mL
urine concentration, Average ([1]; 100 mg/day, n 3): 73.97 ng/mL
urine concentration, Maximum Value ([1]; 100 mg/day, n 3): 94.90 ng/mL
urine concentration, Median Value ([1]; 100 mg/day, n 3): 64.50 ng/mL
urine concentration, Minimum Value ([1]; 100 mg/day, n 3): 62.50 ng/mL
urine concentration, Average ([1]; 120 mg/day, n 16 valid samples): 95.42 ng/mL
urine concentration, Maximum Value ([1]; 120 mg/day, n 16 valid samples): 260.10 ng/mL
urine concentration, Median Value ([1]; 120 mg/day, n 16 valid samples): 73.60 ng/mL
urine concentration, Minimum Value ([1]; 120 mg/day, n 16 valid samples): 12.40 ng/mL
concentration in urine ([1]; patient prescribed 80 mg/day Latuda, subject II, day 1): 147.1 ng/mL
concentration in urine ([1]; patient prescribed 80 mg/day Latuda, subject II, day 4): 144.8 ng/mL
concentration in urine ([1]; patient prescribed 80 mg/day Latuda, subject II, day 5): 112.7 ng/mL
concentration in urine ([1]; patient prescribed 80 mg/day Latuda, subject eleven, day 1): 556.6 ng/mL
concentration in urine ([1]; patient prescribed 80 mg/day Latuda, subject eleven, day 4): 503.8 ng/mL
concentration in urine ([1]; patient prescribed 80 mg/day Latuda, subject eleven, day 5): 264.0 ng/mL
concentration in urine ([1]; patient prescribed 80 mg/day Latuda, subject fifteen, day 1): 138.5 ng/mL
concentration in urine ([1]; patient prescribed 80 mg/day Latuda, subject fifteen, day 4): 83.8 ng/mL
concentration in urine ([1]; patient prescribed 80 mg/day Latuda, subject fifteen, day 5): 67.6 ng/mL
concentration in urine ([1]; patient prescribed 80 mg/day Latuda, subject five, day 1): 57.3 ng/mL
concentration in urine ([1]; patient prescribed 80 mg/day Latuda, subject five, day 4): 69.6 ng/mL
concentration in urine ([1]; patient prescribed 80 mg/day Latuda, subject five, day 5): 100.6 ng/mL
concentration in urine ([1]; patient prescribed 80 mg/day Latuda, subject four, day 1): 175.2 ng/mL
concentration in urine ([1]; patient prescribed 80 mg/day Latuda, subject four, day 4): 96.4 ng/mL
concentration in urine ([1]; patient prescribed 80 mg/day Latuda, subject four, day 5): 116.3 ng/mL
concentration in urine ([1]; patient prescribed 80 mg/day Latuda, subject nine, day 1): 52.6 ng/mL
concentration in urine ([1]; patient prescribed 80 mg/day Latuda, subject nine, day 4): 43.7 ng/mL
concentration in urine ([1]; patient prescribed 80 mg/day Latuda, subject nine, day 5): 38.9 ng/mL
concentration in urine ([1]; patient prescribed 80 mg/day Latuda, subject nineteen, day 1): 210.7 ng/mL
concentration in urine ([1]; patient prescribed 80 mg/day Latuda, subject nineteen, day 4): 70.4 ng/mL
concentration in urine ([1]; patient prescribed 80 mg/day Latuda, subject nineteen, day 5): 16.1 ng/mL
concentration in urine ([1]; patient prescribed 80 mg/day Latuda, subject one, day 1, values marked ** below LOD/LOQ of 5 ng/mL = negative result, * ion ratio criteria not met): 4.8** ng/mL
concentration in urine ([1]; patient prescribed 80 mg/day Latuda, subject one, day 4): 52.0 ng/mL
concentration in urine ([1]; patient prescribed 80 mg/day Latuda, subject one, day 5): 22.9 ng/mL
concentration in urine ([1]; patient prescribed 80 mg/day Latuda, subject seventeen, day 1): 152.8 ng/mL
concentration in urine ([1]; patient prescribed 80 mg/day Latuda, subject seventeen, day 4): 83.3 ng/mL
concentration in urine ([1]; patient prescribed 80 mg/day Latuda, subject seventeen, day 5): 72.4 ng/mL
concentration in urine ([1]; patient prescribed 80 mg/day Latuda, subject sixteen, day 1): 10.1 ng/mL
concentration in urine ([1]; patient prescribed 80 mg/day Latuda, subject sixteen, day 4): 14.5 ng/mL
concentration in urine ([1]; patient prescribed 80 mg/day Latuda, subject sixteen, day 5): 41.0 ng/mL
concentration in urine ([1]; patient prescribed 80 mg/day Latuda, subject ten, day 1): 40.5 ng/mL
concentration in urine ([1]; patient prescribed 80 mg/day Latuda, subject ten, day 4): 162.5 ng/mL
concentration in urine ([1]; patient prescribed 80 mg/day Latuda, subject ten, day 5): 48.3 ng/mL
concentration in urine ([1]; patient prescribed 80 mg/day Latuda, subject thirteen, day 1): 145.2 ng/mL
concentration in urine ([1]; patient prescribed 80 mg/day Latuda, subject thirteen, day 4): 298.3 ng/mL
concentration in urine ([1]; patient prescribed 80 mg/day Latuda, subject thirteen, day 5): 539.5 ng/mL
concentration in urine ([1]; patient prescribed 80 mg/day Latuda, subject three, day 1): 59.5 ng/mL
concentration in urine ([1]; patient prescribed 80 mg/day Latuda, subject three, day 4): 35.9 ng/mL
concentration in urine ([1]; patient prescribed 80 mg/day Latuda, subject three, day 5): 69.5 ng/mL
concentration in urine ([1]; patient prescribed 80 mg/day Latuda, subject twelve, day 1, values marked ** below LOD/LOQ of 5 ng/mL = negative result): 0.0** ng/mL
concentration in urine ([1]; patient prescribed 80 mg/day Latuda, subject twelve, day 4): 32.9 ng/mL
concentration in urine ([1]; patient prescribed 80 mg/day Latuda, subject twelve, day 5): 43.5 ng/mL
concentration in urine ([1]; patient prescribed 80 mg/day Latuda, subject two, day 1): 23.0 ng/mL
concentration in urine ([1]; patient prescribed 80 mg/day Latuda, subject two, day 4, values marked ** below LOD/LOQ of 5 ng/mL = negative result): 0.1** ng/mL
concentration in urine ([1]; patient prescribed 80 mg/day Latuda, subject two, day 5): 36.7 ng/mL
concentration in urine ([1]; patient prescribed 120 mg/day Latuda, subject eight, day 1): 148.7 ng/mL
concentration in urine ([1]; patient prescribed 120 mg/day Latuda, subject eight, day 4): 260.1 ng/mL
concentration in urine ([1]; patient prescribed 120 mg/day Latuda, subject eight, day 5, specimen validity (creatinine, specific gravity) not acceptable): 57.2 ng/mL
concentration in urine ([1]; patient prescribed 120 mg/day Latuda, subject eighteen, day 1): 23.4 ng/mL
concentration in urine ([1]; patient prescribed 120 mg/day Latuda, subject eighteen, day 4): 27.5 ng/mL
concentration in urine ([1]; patient prescribed 120 mg/day Latuda, subject eighteen, day 5): 12.4 ng/mL
concentration in urine ([1]; patient prescribed 120 mg/day Latuda, subject fourteen, day 1): 102.7 ng/mL
concentration in urine ([1]; patient prescribed 120 mg/day Latuda, subject fourteen, day 4): 87.3 ng/mL
concentration in urine ([1]; patient prescribed 120 mg/day Latuda, subject fourteen, day 5): 59.1 ng/mL
concentration in urine ([1]; patient prescribed 120 mg/day Latuda, subject seven, day 1): 83.9 ng/mL
concentration in urine ([1]; patient prescribed 120 mg/day Latuda, subject seven, day 4): 46.4 ng/mL
concentration in urine ([1]; patient prescribed 120 mg/day Latuda, subject seven, day 5): 63.3 ng/mL
concentration in urine ([1]; patient prescribed 120 mg/day Latuda, subject six, day 1, specimen validity (creatinine) not acceptable): 21.7 ng/mL
concentration in urine ([1]; patient prescribed 120 mg/day Latuda, subject six, day 4, specimen validity (specific gravity) not acceptable): 23.7 ng/mL
concentration in urine ([1]; patient prescribed 120 mg/day Latuda, subject six, day 5): 61.6 ng/mL
concentration in urine ([1]; patient prescribed 120 mg/day Latuda, subject twenty, day 1): 126.2 ng/mL
concentration in urine ([1]; patient prescribed 120 mg/day Latuda, subject twenty, day 4): 150.7 ng/mL
concentration in urine ([1]; patient prescribed 120 mg/day Latuda, subject twenty, day 5): 251.7 ng/mL
time to steady state serum concentrations ([2]; days of dosing): 7 days
mean elimination half-life ([2]; in vivo): 18 h
excreted in the feces ([3]; excretion studies in humans): 80%
recovered in the urine ([3]; excretion studies in humans): 9%
share of total radioactivity in plasma ([3]; plasma, post oral dosing): 12%
log P [4]: 5.9
pKa [4]: 7.6
metabolizing enzyme (CYP3A4): metabolized in the liver primarily by CYP3A4
detectability in human urine (Example 1) [5]: detected in the majority of the samples
Lurasidone Metabolite Distribution in Human Urine (qualitative identification) ([5]; Run 1): ✓* (5×) and ✓^ (4×)
Lurasidone Metabolite Distribution in Human Urine (qualitative identification) ([5]; Run 2): ✓^ (4×) and ✓* (5×)
